Data on eleven compounds can be found in patent US20240425490A1, “SULFAMIDE RIBONUCLEOTIDE REDUCTASE (RNR) INHIBITORS AND USES THEREOF” (Boundless Bio, Inc., priority 2021, published 2024).

The test deals with T1, RNR (RNR1:RNR2 1:1) (Homo sapiens, UniProt P23921).
T1 sequence (P23921 1-792): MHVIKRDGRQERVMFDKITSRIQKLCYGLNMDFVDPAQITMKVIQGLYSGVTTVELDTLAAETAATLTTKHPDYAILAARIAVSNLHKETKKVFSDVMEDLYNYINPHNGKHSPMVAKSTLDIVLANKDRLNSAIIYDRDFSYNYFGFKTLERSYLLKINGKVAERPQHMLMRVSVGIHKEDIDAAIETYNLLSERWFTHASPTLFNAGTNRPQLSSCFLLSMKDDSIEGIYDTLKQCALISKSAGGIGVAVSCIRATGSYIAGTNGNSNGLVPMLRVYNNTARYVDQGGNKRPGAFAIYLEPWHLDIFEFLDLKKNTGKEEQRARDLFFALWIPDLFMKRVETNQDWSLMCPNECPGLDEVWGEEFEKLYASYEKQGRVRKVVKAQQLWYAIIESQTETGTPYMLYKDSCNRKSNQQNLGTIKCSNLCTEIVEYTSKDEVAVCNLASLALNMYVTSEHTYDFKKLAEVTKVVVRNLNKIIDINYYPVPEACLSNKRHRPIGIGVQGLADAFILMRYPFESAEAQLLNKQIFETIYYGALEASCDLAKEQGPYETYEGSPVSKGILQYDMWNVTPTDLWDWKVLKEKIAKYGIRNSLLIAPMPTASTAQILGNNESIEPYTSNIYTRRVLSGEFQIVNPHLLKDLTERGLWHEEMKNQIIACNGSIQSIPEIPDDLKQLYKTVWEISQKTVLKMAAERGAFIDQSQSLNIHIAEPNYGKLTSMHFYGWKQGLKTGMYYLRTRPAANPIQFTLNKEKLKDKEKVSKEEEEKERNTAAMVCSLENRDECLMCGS
Kind of test: RNR enzyme activity, rapid-fire mass spectrometry (RFMS) assay. The class given is biochemical. Particulars: RNR 50 nM, CDP 5 μM, ATP 1 mM, 37° C., 45 min, compounds screened up to 50 μM, read-out: RF/MS IC50. Put shortly: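 Human RNR1:RNR2 (1:1, 50 nM) pre-incubated 15 min at room temperature with compound, then reacted with 5 μM CDP and 1 mM ATP, no NADPH, for 45 min at 37 °C. Stopped with 6% HCOOH; turnover read by rapid-fire mass spectrometry; Triapine and hydroxyurea as reference compounds.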
Regarding `Cc1ccc(F)c(C(C)[C@H](NS(=O)(=O)N2CCC(C3NC(=O)NC3=O)CC2)c2n[nH]c(=O)o2)c1C` (stereo partly drawn) [Example 60, 4-(2,5-dioxoimidazolidin-4-yl)-N-((1S)-2-(6-fluoro-2,3-dimethylphenyl)-1-(5-oxo-4,5-dihydro-1,3,4-oxadiazol-2-yl)propyl)piperidine-1-sulfonamide], the IC50 lay in the range of 0.1 to 1 µM. Next, `Cc1ccc(F)c([C@@H](C)[C@H](NS(=O)(=O)N2C3CCC2CC(F)(F)C3)c2n[nH]c(=O)o2)c1C` [Example 110, 3,3-difluoro-N-((1S,2R)-2-(6-fluoro-2,3-dimethylphenyl)-1-(5-oxo-4,5-dihydro-1,3,4-oxadiazol-2-yl)propyl)-8-azabicyclo[3.2.1]octane-8-sulfonamide]: 0.1 to 1 µM. Take `Cc1ccc(F)c(C(C)[C@H](NS(=O)(=O)N2CCCC(N(C)C)C2)c2n[nH]c(=O)o2)c1C` (stereo partly drawn) [Example 25, 3-(dimethylamino)-N-((1S)-2-(6-fluoro-2,3-dimethylphenyl)-1-(5-oxo-4,5-dihydro-1,3,4-oxadiazol-2-yl)propyl)piperidine-1-sulfonamide]: the IC50 lay in the range of 10 to 100 µM. Next, `Cc1ccc(F)c([C@@H](C)[C@H](NS(=O)(=O)N2CCC(S(C)(=O)=O)CC2)c2n[nH]c(=O)o2)c1C` [Example 51, N-((1S,2R)-2-(6-fluoro-2,3-dimethylphenyl)-1-(5-oxo-4,5-dihydro-1,3,4-oxadiazol-2-yl)propyl)-4-(methylsulfonyl)piperidine-1-sulfonamide]: 10 to 100 µM; `Cc1ccc(F)c(C(C)[C@H](NS(=O)(=O)N2CCC(NC(=O)C(C)(C)C)CC2)c2n[nH]c(=O)o2)c1C` (stereo partly drawn) [Example 75, N-(1-(N-((1S)-2-(6-fluoro-2,3-dimethylphenyl)-1-(5-oxo-4,5-dihydro-1,3,4-oxadiazol-2-yl)propyl)sulfamoyl)piperidin-4-yl)pivalamide]: 1 to 10 µM; `Cc1ccc(F)c([C@H](C)[C@H](NS(=O)(=O)N2CCCCC2CC(N)=O)c2n[nH]c(=O)o2)c1C` (stereo partly drawn) [Example 16, 2-(1-(N-((1S,2S)-2-(6-fluoro-2,3-dimethylphenyl)-1-(5-oxo-4,5-dihydro-1,3,4-oxadiazol-2-yl)propyl)sulfamoyl)piperidin-2-yl)acetamide]: 1 to 10 µM.

In the case of `Cc1ccc(F)c(C(C)[C@H](NS(=O)(=O)N2CCCC2)c2n[nH]c(=O)o2)c1C` (stereo partly drawn) [Example 112, N-((1S)-2-(6-fluoro-2,3-dimethylphenyl)-1-(5-oxo-4,5-dihydro-1,3,4-oxadiazol-2-yl)propyl)pyrrolidine-1-sulfonamide], the IC50 is 1 to 10 µM. For “4-(3-azabicyclo[3.1.0]hexan-3-yl)-N-((1S,2R)-2-(6-fluoro-2,3-dimethylphenyl)-1-(5-oxo-4,5-dihydro-1,3,4-oxadiazol-2-yl)propyl)piperidine-1-sulfonamide [Example 105]”, the IC50 fell in the range of 1 to 10 µM.

For the compound `Cc1ccc(F)c([C@@H](C)[C@H](NS(=O)(=O)N2C[C@H]3CCC[C@H]3C2)c2n[nH]c(=O)o2)c1C` [Example 4, (3aR,6aS)-N-((1S,2R)-2-(6-Fluoro-2,3-dimethylphenyl)-1-(5-oxo-4,5-dihydro-1,3,4-oxadiazol-2-yl)propyl)hexahydrocyclopenta[c]pyrrole-2(1H)-sulfonamide], the IC50 is 0.1 to 1 µM. For `Cc1ccc(F)c(C(C)[C@H](NS(=O)(=O)N2CCN(C)CC2)c2n[nH]c(=O)o2)c1C` (stereo partly drawn) [Example 139, N-((1S)-2-(6-fluoro-2,3-dimethylphenyl)-1-(5-oxo-4,5-dihydro-1,3,4-oxadiazol-2-yl)propyl)-4-methylpiperazine-1-sulfonamide], the IC50 is 0.1 to 1 µM. As to `COC1CCN(S(=O)(=O)N[C@H](c2n[nH]c(=O)o2)[C@@H](C)c2c(F)ccc(C)c2C)CC1` [Example 126, N-((1S,2S)-2-(6-fluoro-2,3-dimethylphenyl)-1-(5-oxo-4,5-dihydro-1,3,4-oxadiazol-2-yl)propyl)-4-methoxypiperidine-1-sulfonamide], the IC50 lay in the range of 1 to 10 µM.
